Source: US20210030005A1, “BENZOXABOROLE COMPOSITIONS HAVING A GROWTH ENHANCING EFFECT” (BORAGEN, INC., priority 2018, published 2021)

Legend:
canola seedlings = assay: Soil drench treatment on canola seedlings (perlite); format: in vivo; details: for Mean Stem Length: 10 days after germination, measured 10 days following drench
Method: Sample soil drench treatments were prepared by dissolving […], 3.19 mg, or 3.99 mg of BAG8 in 67.5 mL of acetone in separate vials. Each vial was then added to 202.5 mL of water and shaken vigorously to produce a suitable sample for soil drench treatment at rates of 75 g/A, 100 g/A, and 125 g/A, respectively.
Canola seeds were sown into pots filled with perlite growth medium and allowed to germinate under normal glass house conditions. 10 days after germination the pots were drenched with the respective BAG8 solutions. 10 days following the drench, stem lengths were measured. Analysis of variance was used to examine stem length data and means were separated using Fisher's least significant difference at α=0.05.

[1] = test system: Asian Soybean Rust (Phakopsora pachyrhizi); assay: Field trial, Asian Soybean Rust severity on soybean; format: in vivo
Method: (§1) In this example, diseased soybeans having Asian Soybean Rust (Phakopsora pachyrhizi) were treated with BAG8 and Azoxystrobin. Testing was performed to assess the fungicidal effect of the compounds on Asian Soybean Rust and to assess the growth enhancing effects of the compounds on the diseased soybeans.
(§2) Soybeans were planted into 6×30 ft plots and replicated four times in a randomized complete block design. Two treatments and an untreated control were tested for efficacy against Asian Soybean Rust (Phakopsora pachyrhizi) and assessed for yield at the conclusion of the growing season. Foliar applications of the two treatments, BAG8 at 0.25 pounds of active ingredient per acre and azoxystrobin at 0.25 pounds of active ingredient per acre, were applied to the plots at two separate times: growth stage R1 (flowering) and growth stage R3 (bean pod formation). Best practices were used consistently across the test plots with regard to field conditions such as fertilization, insect control, weed control, and irrigation. Disease assessments were taken in each plot 28 days after the final foliar fungicide application. At maturity, each plot was harvested using standard harvesting equipment. After shelling, the beans were weighed at 13% moisture and yield calculations extrapolated to bushels per acre.
(§3) Analysis of variance (ANOVA) was used to examine disease severity data and means were separated using Fisher's least significant difference (LSD) method at α=0.05. […]

spring wheat = assay: Soil drench growth enhancing effect, spring wheat; format: in vivo; details: for Average Dry Matter Weight / Average Root Length / Average Shoot Height: 4 treatments every 14 days, 14 days after final treatment
Method: (§4) Boron-containing compounds/compositions were applied directly to the soil, and the growth of plants was measured. An exemplary embodiment of a benzoxaborole compound includes 5-chlorobenzo[c][1,2]oxaborol-1(3H)-ol, which may be referred to herein as BAG8.
(§5) Eight 2-gallon pots were filled with steamed soil for each of the five treatments listed below:
(§6) 3-4 seeds were planted into each pot at a depth of 1 inch and covered. All seedlings were subjected to 16 hours of daylight at ˜800 μmol/m^2/second (light intensity) provided by cool-white fluorescent lamps. Daytime temperatures were ˜25° C. and were dropped to ˜18° C. at night.
(§7) Solutions were prepared by first dissolving the appropriate amount of benzoxaborole in ethanol or acetone then adding to distilled water. 100 mL of treatment was applied to each pot in a circular motion to evenly coat the surface of the soil. These treatments were applied every 14 days for a total of 4 treatments, including the at-planting treatment. Each pot was monitored, and 50 mL of distilled water was added to each pot when soil was dry.
(§8) Germination and shoot height data were recorded every seven days. 14 days after the final treatment application, plants were carefully removed from each pot and final shoot length, root length, and dry matter weight were recorded.
(§9) This experiment was conducted on red table beet, broccoli, snow pea, turnips, and spring wheat.

snow pea = assay: Soil drench growth enhancing effect, snow pea; format: in vivo; details: for growth effect compared to untreated control: soil drench; for Average Dry Matter Weight / Average Root Length / Average Shoot Height: 4 treatments every 14 days, 14 days after final treatment
Method: as §4, §5, §6, §7, §8, §9

diseased maize = assay: Field trial, yield of diseased maize; format: in vivo
Method: In this example, diseased maize having Southern Rust of Maize (Puccinia polysora) was treated with BAG8, Azoxystrobin, and Boscalid. Testing was performed to assess the fungicidal effect of the compounds on Southern Rust of Maize (Puccinia polysora) and to assess the growth enhancing effect of the compounds on the diseased maize.
Maize was planted into 6×30 ft plots and replicated four times in a randomized complete block design. Three treatments and an untreated control were tested for efficacy against Southern Rust of Maize (Puccinia polysora) and assessed for yield at the conclusion of the growing season. Foliar applications of the three treatments, BAG8 at 0.25 pounds of active ingredient per acre, azoxystrobin at 0.25 pounds of active ingredient per acre, and boscalid at 0.24 pounds of active ingredient per acre, were applied to the plots at growth stage V8. Best practices were used consistently across the test plots with regard to field conditions such as fertilization, insect control, weed control, and irrigation. Disease assessments were taken in each plot 28 days after the foliar fungicide application. At maturity, each plot was harvested using standard harvesting equipment. After shelling, the kernels were weighed at 11% moisture and yield calculations extrapolated to bushels per acre.
as §3

diseased soybeans = assay: Field trial, yield of diseased soybeans; format: in vivo, soybean
Method: as §1, §2, §3

[2] = treatment B, 0.12 lb/A soil drench
[3] = treatment C, 0.25 lb/A soil drench
[4] = treatment D, 0.35 lb/A soil drench
[5] = treatment E, 0.60 lb/A soil drench

Structure (SMILES): OB1OCc2cc(Cl)ccc21 [BAG8, 5-chlorobenzo[c][1,2]oxaborol-1(3H)-ol]
- increased root length (canola seedlings; all tested application rates, soil drench, canola seedlings): 19-65%
- Mean Stem Length (canola seedlings; soil drench 75 g ai/A): 39.2 mm
- Mean Stem Length (canola seedlings; soil drench 100 g ai/A): 33.8 mm
- Mean Stem Length (canola seedlings; soil drench 125 g ai/A): 47.1 mm
- reduced disease in comparison to untreated control ([1]; 0.25 lb ai/A foliar): 47%
- Disease Severity (% Leaf Coverage) ([1]; 0.25 lb ai/A foliar at R1 and R3, 28 days after final application): 48.2 c % Leaf Coverage
- growth effect compared with untreated control (spring wheat; all rates (0.12-0.60 lb/A), soil drench): longer shoots, longer roots, and greater dry matter weight than the untreated control
- increase in final dry matter weight of wheat (spring wheat; applied at 0.12 and 0.25 pounds per acre, soil drench): ~250%
- Average Dry Matter Weight (spring wheat; [2]): 1204.30 mg
- Average Root Length (spring wheat; [2]): 21.30 cm
- Average Shoot Height (spring wheat; [2]): 39.50 cm
- Average Dry Matter Weight (spring wheat; [3]): 1123.60 mg
- Average Root Length (spring wheat; [3]): 24.40 cm
- Average Shoot Height (spring wheat; [3]): 39.70 cm
- Average Dry Matter Weight (spring wheat; [4]): 640.20 mg
- Average Root Length (spring wheat; [4]): 20.40 cm
- Average Shoot Height (spring wheat; [4]): 37.50 cm
- Average Dry Matter Weight (spring wheat; [5]): 649.70 mg
- Average Root Length (spring wheat; [5]): 22.00 cm
- Average Shoot Height (spring wheat; [5]): 39.90 cm
- growth effect compared to untreated control (snow pea; 0.25 pounds per acre): increased the shoot height, root length, and dry matter weight
- growth effect compared to untreated control (snow pea; rates other than 0.25 pounds per acre): does not increase average shoot height, average root length, or average dry matter weight
- Average Dry Matter Weight (snow pea; [2]): 102.70 mg
- Average Root Length (snow pea; [2]): 7.10 cm
- Average Shoot Height (snow pea; [2]): 6.90 cm
- Average Dry Matter Weight (snow pea; [3]): 280.10 mg
- Average Root Length (snow pea; [3]): 12.10 cm
- Average Shoot Height (snow pea; [3]): 13.10 cm
- Average Dry Matter Weight (snow pea; [4]): 185.70 mg
- Average Root Length (snow pea; [4]): 8.00 cm
- Average Shoot Height (snow pea; [4]): 9.40 cm
- Average Dry Matter Weight (snow pea; [5]): 130.90 mg
- Average Root Length (snow pea; [5]): 7.90 cm
- Average Shoot Height (snow pea; [5]): 6.50 cm
- increased yield relative to untreated control (diseased maize; 0.25 lb ai/A foliar): 194%
- Yield (diseased maize; 0.25 lb ai/A foliar at V8, harvest at maturity, 11% moisture): 146.2 a bu/A
- increased soybean yield (diseased soybeans; 0.25 lb ai/A foliar): 281%
- Yield (diseased soybeans; 0.25 lb ai/A foliar at R1 and R3, harvest at maturity, 13% moisture): 55.6 a bu/A
